US3937612A, “Dialkylphosphonoacetylurea compounds and processes for preparation and use for flameproofing” (priority 1974, dated 1976)

Assay: Water solubility (stated in words)
Format: physicochemical
Procedure: While stirring, 682 gm (5 mol) of chloroacetylurea were added portionwise to 831 gm (5 mol) of triethyl phosphite at a temperature of 135°C to 150°C. Each time, the addition of the next portion was delayed until the violent gas evolution had abated. After the last portion of chloracetylurea had been added, the stirring was continued at 150°Cuntil the evolution of gas was terminated. Small quantities of a volatile substance distilled off when the reaction mixture was heated on the water bath under the vacuum generated by an oil pump. The reaction mixture solidified upon cooling. […] The yield of crude product was 1120 gm (94% of the theory).

CCOP(=O)(CC(=O)NC(N)=O)OCC [diethylphosphonoacetylurea, Diethylphosphonoacetylurea]
water solubility: water-soluble
